For the assay, the target named is T1, LmxCLK1 (Leishmania mexicana, UniProt E9AMP2).
T1 sequence (E9AMP2 1-422): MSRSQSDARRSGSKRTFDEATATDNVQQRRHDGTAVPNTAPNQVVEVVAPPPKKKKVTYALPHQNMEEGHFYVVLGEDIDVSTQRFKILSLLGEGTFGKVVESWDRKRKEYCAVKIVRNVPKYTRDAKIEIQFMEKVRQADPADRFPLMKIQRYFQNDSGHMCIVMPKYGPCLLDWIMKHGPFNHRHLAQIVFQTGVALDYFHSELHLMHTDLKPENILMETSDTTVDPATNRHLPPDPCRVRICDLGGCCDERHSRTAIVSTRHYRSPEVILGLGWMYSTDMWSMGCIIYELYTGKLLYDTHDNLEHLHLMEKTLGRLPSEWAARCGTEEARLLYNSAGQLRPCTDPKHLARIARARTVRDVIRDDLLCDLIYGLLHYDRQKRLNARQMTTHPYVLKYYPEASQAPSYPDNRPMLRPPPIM
The experiment in a line: biochemical. In kind it is binding.

Setting [1] is: DSF, 10 µM compound, 2 µM LmxCLK1, Run 1.
The mark [2] stands for this setting: DSF, 10 µM compound, 2 µM LmxCLK1, Run 2.
Where [3] appears, read: DSF, 10 µM compound, 2 µM LmxCLK1, mean of two runs.
Setting [4] is: DSF, 10 µM compound, 2 µM LmxCLK1, Run 1, read-out: ΔTm Run 1.
The mark [5] stands for this setting: DSF, 10 µM compound, 2 µM LmxCLK1, Run 2, read-out: ΔTm Run 2.
[6] abbreviates: DSF, 10 µM compound, 2 µM LmxCLK1, mean of two runs, read-out: ΔTm Average.

Read-outs that look alike come from different tables or passages of the source.

Regarding `C=CC(=O)Nc1cccc(Nc2nc(Nc3ccc(N4CCN(C(C)=O)CC4)cc3OC)ncc2C(F)(F)F)c1` [CO-1686 (AVL-301)], the “ΔTm Run 1” value under setting [1] was determined as 0.0 °C. Besides, the “ΔTm Run 2” value under setting [2] was -0.3 °C. For the same compound, the “ΔTm Average” value under setting [3] is -0.1 °C.

By ΔTm is commonly meant the change in melting temperature against a reference sample. Consider `COCCOc1ccc2c(c1)ncn2-c1ccc2cccc(N3CCC(N)CC3)c2n1` [CP-673451], for which the thermal shift (ΔTm) at 10 µM by setting is: under setting [4], 0.1 °C; under setting [5], 0 °C; under setting [6], 0 °C.

Consider `COCC(=O)NC/C=C/c1ccc2ncnc(Nc3ccc(Oc4ccc(C)nc4)c(C)c3)c2c1` [CP-724714], for which the ΔTm at 10 µM by setting is: under setting [4], 0.6 °C; under setting [5], 0.2 °C; under setting [6], 0.4 °C.

As for `C#Cc1cccc(Nc2ncnc3cc(OC)c(OCCCCCCC(=O)NO)cc23)c1` [CUDC-101], the ΔTm at 10 µM is 0.4 °C under setting [4], 0.2 °C under setting [5] and 0.3 °C under setting [6].

On to `COc1ccc(-c2nc(N3CCOCC3)c3sc(CN(C)c4ncc(C(=O)NO)cn4)cc3n2)cn1` [CUDC-907], for which the thermal shift (ΔTm) at 10 µM by setting is: under setting [4], 0.3 °C; under setting [5], -0.2 °C; under setting [6], 0 °C.

As for `Cc1nc(N)sc1-c1ccnc(Nc2ccc(N3CCOCC3)cc2)n1` [CYC116], the shift in melting temperature (ΔTm) at 10 µM by setting is: under setting [4], 0.4 °C; under setting [5], -0.1 °C; under setting [6], 0.1 °C.

Turning to `N#CCNC(=O)c1ccc(-c2ccnc(Nc3ccc(N4CCOCC4)cc3)n2)cc1` [CYT387], the shift in melting temperature (ΔTm) at 10 µM was 0 °C under setting [4], -0.1 °C under setting [5] and 0 °C under setting [6].

For `CC(C)(C)NS(=O)(=O)c1cncc(-c2cc(F)c3nc(N)nn3c2)c1` [CZC24832], the ΔTm at 10 µM by setting is: under setting [4], 0 °C; under setting [5], -0.2 °C; under setting [6], -0.1 °C.

As for `COc1cc2nccc(Oc3ccc(NC(=O)C4(C(=O)Nc5ccc(F)cc5)CC4)cc3)c2cc1OC` [Cabozantinib (XL184)], the “ΔTm Run 1” value under setting [1] was 0.3 °C. Under setting [2], the “ΔTm Run 2” value is -0.2 °C. In addition, the “ΔTm Average” value under setting [3] came out at 0.0 °C.

For the compound `COc1cc2nccc(Oc3ccc(NC(=O)C4(C(=O)Nc5ccc(F)cc5)CC4)cc3)c2cc1OC.O=C(O)C[C@H](O)C(=O)O` [Cabozantinib malate (XL184)], under setting [1], the “ΔTm Run 1” value turned out to be 0.1 °C. Further, under setting [2], the “ΔTm Run 2” value is -0.3 °C. In addition, the “ΔTm Average” value under setting [3] was -0.1 °C.

As for `COc1cc2c(Oc3ccc4[nH]c(C)cc4c3F)ncnc2cc1OCCCN1CCCC1` [Cediranib (AZD2171)], under setting [1], the “ΔTm Run 1” value came to 0.5 °C. The “ΔTm Run 2” value under setting [2] amounted to 0.1 °C. Besides, under setting [3], the “ΔTm Average” value was 0.3 °C.

On to `Cc1cc(O)c2c(c1)C(=O)c1cccc(O)c1C2=O` [Chrysophanic Acid], for which the ΔTm at 10 µM is 0 °C under setting [4], -0.2 °C under setting [5] and -0.1 °C under setting [6].

With `CC1(COc2ccc3c(c2)ncn3-c2ccc3cccc(N4CCC(N)CC4)c3n2)COC1` [Crenolanib (CP-868596)], under setting [1], the “ΔTm Run 1” value is 0.5 °C. For the same compound, the “ΔTm Run 2” value under setting [2] was -0.1 °C. For the same compound, under setting [3], the “ΔTm Average” value stood at 0.2 °C.

Turning to `C[C@@H](Oc1cc(-c2cnn(C3CCNCC3)c2)cnc1N)c1c(Cl)ccc(F)c1Cl` [Crizotinib (PF-02341066)], the “ΔTm Run 1” value under setting [1] is 1.4 °C. Besides, the “ΔTm Run 2” value under setting [2] was 1.4 °C. Under setting [3], the “ΔTm Average” value amounted to 1.4 °C.

Turning to `CNC(=O)c1cc(Oc2ccc(NC(=O)Nc3cc(C(C)(C)C)nn3-c3ccc4ncccc4c3)c(F)c2)ccn1` [DCC-2036 (Rebastinib)], under setting [1], the “ΔTm Run 1” value is -0.2 °C. For the same compound, the “ΔTm Run 2” value under setting [2] is -0.4 °C. The “ΔTm Average” value under setting [3] was -0.3 °C.

As to `CO[C@@H](C(=O)N1Cc2n[nH]c(NC(=O)c3ccc(N4CCN(C)CC4)cc3)c2C1)c1ccccc1` [Danusertib (PHA-739358)], the ΔTm at 10 µM stood at 0.3 °C under setting [4], 0.1 °C under setting [5] and 0.2 °C under setting [6].

In the case of `CCC[C@H](NC(=O)/C(C#N)=C/c1cccc(Br)n1)c1ccccc1` [Degrasyn (WP1130)], the “ΔTm Run 1” value under setting [1] was 0.4 °C. Besides, the “ΔTm Run 2” value under setting [2] was 0.2 °C. Besides, the “ΔTm Average” value under setting [3] was 0.3 °C.

Regarding `CC(O)C(=O)O.CC(O)C(=O)O.CN1CCN(c2ccc3nc(-c4c(N)c5c(F)cccc5[nH]c4=O)[nH]c3c2)CC1` [Dovitinib (TKI-258) Dilactic Acid], the “ΔTm Run 1” value under setting [1] was -0.5 °C. Besides, under setting [2], the “ΔTm Run 2” value is -0.4 °C. Also, under setting [3], the “ΔTm Average” value was -0.4 °C.

`CN1CCN(c2ccc3nc(-c4c(N)c5c(F)cccc5[nH]c4=O)[nH]c3c2)CC1` [Dovitinib (TKI-258)]: the “ΔTm Run 1” value under setting [1] was 0.5 °C. Also, the “ΔTm Run 2” value under setting [2] turned out to be 0.2 °C. Further, the “ΔTm Average” value under setting [3] turned out to be 0.3 °C.

For the compound `O=c1cc(CN2CCOCC2)occ1OCCCCCSc1ccnc2cc(C(F)(F)F)ccc12` [EHT 1864], under setting [1], the “ΔTm Run 1” value was found to be 0.1 °C. Besides, the “ΔTm Run 2” value under setting [2] is -0.3 °C. Further, the “ΔTm Average” value under setting [3] is -0.1 °C.

Consider `CCn1c2ccccc2c2cc(Nc3ccnc(NCCCN4CCOCC4)n3)ccc21` [EHop-016], for which the “ΔTm Run 1” value under setting [1] was -0.1 °C. The “ΔTm Run 2” value under setting [2] was determined as 0.0 °C. The “ΔTm Average” value under setting [3] is 0.0 °C.

Regarding `Cc1cc(Nc2cc(N3CCN(C)CC3)nc(/C=C/c3ccccc3)n2)n[nH]1` [ENMD-2076], the ΔTm at 10 µM turned out to be 0.3 °C under setting [4], 0.1 °C under setting [5] and 0.2 °C under setting [6].

Turning to `CC(C)(C#N)c1ccc(N2C(=O)OCc3cnc4ccc(-c5cnc6ccccc6c5)cc4c32)cc1` [ETP-46464], under setting [1], the “ΔTm Run 1” value was 0.3 °C. Moreover, the “ΔTm Run 2” value under setting [2] was -0.4 °C. Under setting [3], the “ΔTm Average” value was -0.1 °C.

With `CO[C@H]1C[C@@H]2CC[C@@H](C)[C@@](O)(O2)C(=O)C(=O)N2CCCC[C@H]2C(=O)O[C@H]([C@H](C)C[C@@H]2CC[C@@H](OCCO)[C@H](OC)C2)CC(=O)[C@H](C)/C=C(\C)[C@@H](O)[C@@H](OC)C(=O)[C@H](C)C[C@H](C)/C=C/C=C/C=C/1C` [Everolimus (RAD001)], the “ΔTm Run 1” value under setting [1] was 0.2 °C. Further, under setting [2], the “ΔTm Run 2” value was -0.2 °C. Further, the “ΔTm Average” value under setting [3] came to 0.0 °C.

As for `CCCCCCCCc1ccc(CCC(N)(CO)CO)cc1.Cl` [Fingolimod (FTY720) HCl], the “ΔTm Run 1” value under setting [1] came out at 0.2 °C. The “ΔTm Run 2” value under setting [2] is -0.1 °C. Moreover, the “ΔTm Average” value under setting [3] is 0.1 °C.

Take `COc1cc2c(Oc3ccc(NC(=O)C4(C(=O)Nc5ccc(F)cc5)CC4)cc3F)ccnc2cc1OCCCN1CCOCC1` [Foretinib (GSK1363089)]: the “ΔTm Run 1” value under setting [1] amounted to 0.4 °C. For the same compound, the “ΔTm Run 2” value under setting [2] was -0.4 °C. Further, under setting [3], the “ΔTm Average” value is 0.0 °C.

With `CCNC(=O)Nc1ccc(-c2nc3c(c(N4CCOC[C@@H]4C)n2)CCN(C2COC2)C3)cc1` [GDC-0349], the ΔTm at 10 µM was -0.1 °C under setting [4], -0.1 °C under setting [5] and -0.1 °C under setting [6].

For `OCCn1cc(-c2ccc3c(c2)CC/C3=N\O)c(-c2ccncc2)n1` [GDC-0879], the ΔTm at 10 µM is 0 °C under setting [4], -0.2 °C under setting [5] and -0.1 °C under setting [6].

Turning to `CS(=O)(=O)N1CCN(Cc2cc3nc(-c4cccc5[nH]ncc45)nc(N4CCOCC4)c3s2)CC1` [GDC-0941], the thermal shift (ΔTm) at 10 µM is 0.1 °C under setting [4], 0 °C under setting [5] and 0.1 °C under setting [6].

For `Cc1c(CN2CCN(C(=O)[C@H](C)O)CC2)sc2c(N3CCOCC3)nc(-c3cnc(N)nc3)nc12` [GDC-0980 (RG7422)], the thermal shift (ΔTm) at 10 µM by setting is: under setting [4], 0.1 °C; under setting [5], -0.1 °C; under setting [6], 0 °C.

Regarding `CNc1nc(Nc2cn(C(C)(C)C#N)nc2C)ncc1C(F)(F)F` [GNE-0877], the ΔTm at 10 µM is -0.1 °C under setting [4], -0.2 °C under setting [5] and -0.1 °C under setting [6].

`CC1=C(C(=O)Nc2cc3cn[nH]c3cc2F)C(c2ccc(C(F)(F)F)cc2)CC(=O)N1` (stereo not drawn) [GSK429286A]: the ΔTm at 10 µM reads like this: under setting [4], 0.1 °C; under setting [5], 0.2 °C; under setting [6], 0.1 °C.

In the case of `C[C@@H](Oc1cc(-n2cnc3ccc(CN4CCN(C)CC4)cc32)sc1C(N)=O)c1ccccc1C(F)(F)F` [GSK461364], the ΔTm at 10 µM under setting [4] was found to be 0.6 °C, the thermal shift (ΔTm) at 10 µM under setting [5] worked out at 0.1 °C and the shift in melting temperature (ΔTm) at 10 µM under setting [6] came to 0.4 °C.

On to `CCn1c(-c2nonc2N)nc2c(C#CC(C)(C)O)ncc(OC[C@H]3CCCNC3)c21` [GSK690693], for which the ΔTm at 10 µM was 0.1 °C under setting [4], -0.3 °C under setting [5] and -0.1 °C under setting [6].

Take `CNC(=O)c1c(F)cccc1Nc1nc(Nc2cc3c(cc2OC)CCN3C(=O)CN(C)C)nc2[nH]ccc12` [GSK1838705A]: the “ΔTm Average” value is -0.2, the “ΔTm Run 1” value is reported as -0.1 and the “ΔTm Run 2” value is on record as -0.3.

Turning to `CCc1cc(Nc2nccc(-c3c(-c4ccc(OC)c(C(=O)Nc5c(F)cccc5F)c4)nc4ccccn34)n2)c(OC)cc1N1CCC(N2CCN(S(C)(=O)=O)CC2)CC1` [GSK1904529A], the ΔTm Average was 0.2 °C, the ΔTm Run 1 amounted to 0.2 °C and the ΔTm Run 2 was 0.1 °C.

Turning to `COc1ncc(-c2ccc3nccc(-c4ccnnc4)c3c2)cc1NS(=O)(=O)c1ccc(F)cc1F` [GSK2126458 (GSK458)], the “ΔTm Run 1” value under setting [1] was -0.2 °C. Besides, under setting [2], the “ΔTm Run 2” value is -0.3 °C. For the same compound, the “ΔTm Average” value under setting [3] was -0.3 °C.

Source of the values: article PMC7619385 (ACS infectious diseases, 2025).
